As a reminder, the IC50 is the point on the concentration scale where inhibition reaches its midpoint.

Among the data in ChEMBL document CHEMBL3301562, “MMV Box screening against Plasmodium falciparum protein kinases and aminoacyl tRNA synthetases” are IC50 values, retold here.

What all share (assay type): functional
Assay [1] has as its target Calcium-dependent protein kinase 1 (Plasmodium falciparum, UniProt P62344). The assay is described as follows: MMV: CDPK1 Protein kinase inhibition assay using recombinant PfCDPK1, syntide 2 peptide substrate, ATP and KinaseGlo to measure % inhibition at 1 uM MMV box compound. For orientation: Kinase-Glo reads ATP consumption through a luciferase reaction.
For assay [2], the target named is T1, Cdk-related protein kinase 6 (Plasmodium falciparum, UniProt O77239).
T1 sequence (O77239 whole entry): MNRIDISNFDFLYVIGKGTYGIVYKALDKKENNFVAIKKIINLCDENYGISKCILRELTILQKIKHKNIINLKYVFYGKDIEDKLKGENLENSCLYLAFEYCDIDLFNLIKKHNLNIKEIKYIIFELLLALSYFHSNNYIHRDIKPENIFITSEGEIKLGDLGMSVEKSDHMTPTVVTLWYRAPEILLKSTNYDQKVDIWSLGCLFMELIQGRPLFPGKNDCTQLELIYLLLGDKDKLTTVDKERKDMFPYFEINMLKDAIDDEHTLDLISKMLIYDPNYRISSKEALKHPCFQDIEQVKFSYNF
The assay is described as follows: Final concentrations were 1.5 uM ATP, 5 mM MnCl2, and 15 ug/ml PK6 in a buffer of 100 mM Tris-HCl (pH 7.5). 50 ug/mL MBP was provided as the substrate; 10 uM staurosporine was used as a control inhibitor. Incubation time was 3 hours and 40 minutes.The catalytic activity of each kinase was considered proportional to ATP consumed, as determined from measurements of residual [ATP] with the luciferase-based reagent Kinase-Glo (Promega) following incubation. Luminescence (proportional to residual [ATP]) was measured on the plate readers FLx800 (BioTek Instruments, Winooski, VT, USA) and MicroBeta2.

The target in assay [3] is T2, Calcium-dependent protein kinase 4 (Plasmodium falciparum (isolate 3D7), UniProt Q8IBS5).
T2 sequence (Q8IBS5 whole entry): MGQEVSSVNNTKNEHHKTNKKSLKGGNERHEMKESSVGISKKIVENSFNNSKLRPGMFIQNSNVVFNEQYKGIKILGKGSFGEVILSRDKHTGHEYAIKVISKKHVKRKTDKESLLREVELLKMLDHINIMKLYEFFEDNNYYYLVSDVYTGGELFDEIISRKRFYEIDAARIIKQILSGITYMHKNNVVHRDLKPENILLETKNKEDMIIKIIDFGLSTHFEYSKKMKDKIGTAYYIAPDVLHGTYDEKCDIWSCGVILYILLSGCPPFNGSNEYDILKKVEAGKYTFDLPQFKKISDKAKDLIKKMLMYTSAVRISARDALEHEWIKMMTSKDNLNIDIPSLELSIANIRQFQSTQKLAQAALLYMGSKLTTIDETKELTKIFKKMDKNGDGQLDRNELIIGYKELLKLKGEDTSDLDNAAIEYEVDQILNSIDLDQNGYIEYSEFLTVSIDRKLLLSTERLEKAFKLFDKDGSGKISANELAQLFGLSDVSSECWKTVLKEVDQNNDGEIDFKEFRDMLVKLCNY
As to the kind of experiment: MMV: CDPK4 Protein kinase inhibition assay using recombinant PfCDPK4, syntide2 peptide substrate, ATP and KinaseGlo to measure % inhibition at 1 uM MMV box compound.

In another assay the target is T3, Proline--tRNA ligase (Plasmodium falciparum (isolate 3D7), UniProt Q8I5R7).
T3 sequence (Q8I5R7 whole entry): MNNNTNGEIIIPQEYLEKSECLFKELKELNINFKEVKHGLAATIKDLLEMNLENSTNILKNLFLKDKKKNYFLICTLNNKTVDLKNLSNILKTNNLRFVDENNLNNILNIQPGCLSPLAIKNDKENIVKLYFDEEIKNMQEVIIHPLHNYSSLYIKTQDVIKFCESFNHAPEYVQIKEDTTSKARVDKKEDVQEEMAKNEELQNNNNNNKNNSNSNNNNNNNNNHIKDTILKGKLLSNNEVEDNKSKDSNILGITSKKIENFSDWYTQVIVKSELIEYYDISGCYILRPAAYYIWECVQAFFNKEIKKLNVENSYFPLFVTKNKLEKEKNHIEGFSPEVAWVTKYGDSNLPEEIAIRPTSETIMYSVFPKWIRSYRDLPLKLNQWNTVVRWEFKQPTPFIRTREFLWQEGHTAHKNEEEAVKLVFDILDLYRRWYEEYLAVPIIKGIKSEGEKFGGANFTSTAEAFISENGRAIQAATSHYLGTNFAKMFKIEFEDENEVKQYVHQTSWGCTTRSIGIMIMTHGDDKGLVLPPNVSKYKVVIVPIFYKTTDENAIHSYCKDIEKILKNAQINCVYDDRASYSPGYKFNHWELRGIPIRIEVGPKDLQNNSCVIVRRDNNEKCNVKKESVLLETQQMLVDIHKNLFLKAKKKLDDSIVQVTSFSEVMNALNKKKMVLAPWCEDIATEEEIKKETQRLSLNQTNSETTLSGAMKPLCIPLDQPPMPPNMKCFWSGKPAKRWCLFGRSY
The assay is described as follows: MMV: ProRS recombinant Plasmodium falciparum Prolyl-tRNA-synthetase, assay with yeast tRNA, ATP, and proline and 3 uM MMV malaria box compound, assay read out with kinase glo as % inhibition.

A further assay deals with Lysine--tRNA ligase (Plasmodium falciparum (isolate 3D7), UniProt Q8IDJ8). As to the kind of experiment: MMV: KRS recombinant Plasmodium falciparum Lysyl-tRNA-synthetase, assay with yeast tRNA, ATP, and lysine and 3 uM MMV malaria box compound, assay read out with kinase glo as % inhibition.
Sequence of Lysine--tRNA ligase (Q8IDJ8 whole entry): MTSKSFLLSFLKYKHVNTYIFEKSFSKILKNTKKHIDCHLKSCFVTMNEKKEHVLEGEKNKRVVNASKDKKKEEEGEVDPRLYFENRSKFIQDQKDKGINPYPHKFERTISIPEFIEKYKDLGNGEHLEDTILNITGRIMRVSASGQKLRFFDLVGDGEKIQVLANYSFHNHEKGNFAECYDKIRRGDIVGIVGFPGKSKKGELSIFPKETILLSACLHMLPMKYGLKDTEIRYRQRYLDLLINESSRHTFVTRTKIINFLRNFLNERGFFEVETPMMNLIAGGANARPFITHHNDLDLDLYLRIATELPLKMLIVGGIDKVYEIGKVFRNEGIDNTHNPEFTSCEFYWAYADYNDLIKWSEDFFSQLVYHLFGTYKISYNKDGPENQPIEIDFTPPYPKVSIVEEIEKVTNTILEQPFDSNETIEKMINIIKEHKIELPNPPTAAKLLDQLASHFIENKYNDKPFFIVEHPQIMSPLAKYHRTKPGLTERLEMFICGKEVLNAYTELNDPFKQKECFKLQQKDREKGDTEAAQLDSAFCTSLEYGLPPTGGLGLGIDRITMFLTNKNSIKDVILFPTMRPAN
For assay [4], the target named is T4, Putative uncharacterized protein pk7 (Plasmodium falciparum, UniProt O96214).
T4 sequence (O96214 whole entry): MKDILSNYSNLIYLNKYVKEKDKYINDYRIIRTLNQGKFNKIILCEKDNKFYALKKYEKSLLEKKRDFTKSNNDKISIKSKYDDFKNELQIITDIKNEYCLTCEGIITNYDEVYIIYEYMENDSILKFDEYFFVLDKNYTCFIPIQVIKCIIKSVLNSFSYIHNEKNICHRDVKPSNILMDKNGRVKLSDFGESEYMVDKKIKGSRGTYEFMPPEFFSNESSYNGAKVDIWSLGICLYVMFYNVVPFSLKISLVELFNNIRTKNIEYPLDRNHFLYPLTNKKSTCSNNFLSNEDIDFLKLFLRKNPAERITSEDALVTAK
As to the kind of experiment: Final concentrations were 1 uM ATP, 2 mM DTT, 20 mM MgCl2, 2 mM MnCl2, 0.01% BSA, and 6 ug/ml PK7, in a buffer of 20 mM Tris-HCl (pH 7.5). The enzyme itself was the only substrate present (since autophosphorylation occurs); 100 uM 1NA-PP1 was used as a control inhibitor. Incubation time was 3 hours.

In assay [5] the target is T5, Mitogen-activated protein kinase (Plasmodium falciparum, UniProt Q25917).
T5 sequence (Q25917 whole entry): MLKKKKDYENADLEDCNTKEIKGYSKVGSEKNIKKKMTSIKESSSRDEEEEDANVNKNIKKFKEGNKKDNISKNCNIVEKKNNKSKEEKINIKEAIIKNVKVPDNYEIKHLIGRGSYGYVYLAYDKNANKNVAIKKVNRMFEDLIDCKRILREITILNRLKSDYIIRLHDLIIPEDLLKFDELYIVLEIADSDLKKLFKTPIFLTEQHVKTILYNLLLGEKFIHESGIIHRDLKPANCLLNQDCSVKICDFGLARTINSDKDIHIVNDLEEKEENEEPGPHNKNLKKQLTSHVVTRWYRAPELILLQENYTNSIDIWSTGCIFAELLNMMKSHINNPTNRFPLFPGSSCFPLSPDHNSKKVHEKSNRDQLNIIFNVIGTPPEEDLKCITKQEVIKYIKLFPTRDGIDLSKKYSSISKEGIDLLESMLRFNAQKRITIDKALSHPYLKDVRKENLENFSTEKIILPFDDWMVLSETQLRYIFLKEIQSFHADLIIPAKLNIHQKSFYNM
The assay is described as follows: Final concentrations were 1 uM ATP, 0.5 mM DTT, 1 mM MgCl2, 0.5 mg/mL BSA, and 10 ug/ml MAP2 in a buffer of 50 mM HEPES (pH 7.0). 0.5 mg/mL histone III-S served as the substrate (13); 100 uM AMP-PNP, an ATP analog, was used as a control inhibitor. Incubation time was 4 hours.

Sequence of Calcium-dependent protein kinase 1 (P62344 whole entry): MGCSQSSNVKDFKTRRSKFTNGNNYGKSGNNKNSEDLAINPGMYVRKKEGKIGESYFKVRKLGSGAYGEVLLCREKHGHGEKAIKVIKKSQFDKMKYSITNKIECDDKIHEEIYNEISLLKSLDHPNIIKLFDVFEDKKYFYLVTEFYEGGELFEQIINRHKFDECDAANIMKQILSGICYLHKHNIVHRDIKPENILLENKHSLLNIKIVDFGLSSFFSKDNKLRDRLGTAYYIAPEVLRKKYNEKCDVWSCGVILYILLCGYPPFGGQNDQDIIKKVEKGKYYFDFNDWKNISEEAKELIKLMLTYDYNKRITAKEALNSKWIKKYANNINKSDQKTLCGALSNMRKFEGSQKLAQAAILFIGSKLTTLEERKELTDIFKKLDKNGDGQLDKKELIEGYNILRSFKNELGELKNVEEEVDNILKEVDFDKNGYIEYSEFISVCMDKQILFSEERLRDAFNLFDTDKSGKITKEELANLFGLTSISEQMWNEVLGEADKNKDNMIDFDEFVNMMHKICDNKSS

With `O=C(Nc1ccccc1O)c1ccc(Oc2cccc(C(=O)Nc3ccccc3O)c2)cc1`, the IC50 is over 1000 nM in assay [1]; over 1000 nM in assay [2]; over 1000 nM in assay [3]; over 2500 nM at Proline--tRNA ligase; over 2500 nM at Lysine--tRNA ligase; over 1000 nM in assay [4]. The IC50 in assay [5] is over 1000 nM.

Regarding `COc1ccc(C(=O)Nc2ccc3nc(N4CCCCC4)cc(C)c3c2)cc1OC`, the IC50 in assay [1] is over 1000 nM; in assay [2] it was over 1000 nM; in assay [3], over 1000 nM; on Proline--tRNA ligase it was over 2500 nM; on Lysine--tRNA ligase, over 2500 nM; in assay [4], over 1000 nM. Also, in assay [5], the IC50 is over 1000 nM.

For the compound `Cn1c(=O)c2cc(C(=O)NCCCN3CCCCCC3)sc2c2ccccc21`, the IC50 in assay [1] was over 1000 nM; in assay [2], over 1000 nM; in assay [3], over 1000 nM; on Proline--tRNA ligase, over 2500 nM; on Lysine--tRNA ligase it was over 2500 nM; in assay [4] it was over 1000 nM. In addition, the IC50 in assay [5] was over 1000 nM.

As for `COc1ccc(CCN2CCC(CN(C)Cc3cnn(-c4ccccc4)c3)CC2)cc1`, the IC50 is over 1000 nM in assay [1]; over 1000 nM in assay [2]; over 1000 nM in assay [3]; over 2500 nM on Proline--tRNA ligase; over 2500 nM at Lysine--tRNA ligase; over 1000 nM in assay [4]. Also, the IC50 in assay [5] is over 1000 nM.

Turning to `O=C(NC(c1ccccc1)c1ccc2cccnc2c1O)c1ccccc1` (stereo not given), the IC50 was over 1000 nM in assay [1]; over 1000 nM in assay [2]; over 1000 nM in assay [3]; over 2500 nM on Proline--tRNA ligase; over 2500 nM on Lysine--tRNA ligase; over 1000 nM in assay [4]. This compound also showed an IC50 in assay [5] of over 1000 nM.

Turning to `COc1ccc(CNC2CCN(c3ccc(NC(=O)c4cccc(Cl)c4)cc3)CC2)cc1OC`, the IC50 was over 1000 nM in assay [1]; over 1000 nM in assay [2]; over 1000 nM in assay [3]; over 2500 nM at Proline--tRNA ligase; over 2500 nM on Lysine--tRNA ligase; over 1000 nM in assay [4]. This compound had an IC50 in assay [5] of over 1000 nM.

Take `CC(NCc1ccccc1)c1cc(Cl)ccc1O` (stereo not given): the IC50 is over 1000 nM in assay [1]; over 1000 nM in assay [2]; over 1000 nM in assay [3]; over 2500 nM on Proline--tRNA ligase; over 2500 nM on Lysine--tRNA ligase; over 1000 nM in assay [4]. Moreover, the IC50 in assay [5] was over 1000 nM.

Take `O=C(Nc1ccc(CN2CCOCC2)cc1)c1ccc(-c2ccc(Br)cc2)o1`: the IC50 is over 1000 nM in assay [1]; over 1000 nM in assay [2]; over 1000 nM in assay [3]; over 2500 nM at Proline--tRNA ligase; over 2500 nM on Lysine--tRNA ligase; over 1000 nM in assay [4]. Further, the IC50 in assay [5] was over 1000 nM.

Regarding `CCN(CC)c1ccc(NC(=O)c2cccs2)cc1`, the IC50 in assay [1] is over 1000 nM; in assay [2], over 1000 nM; in assay [3], over 1000 nM; at Proline--tRNA ligase, over 2500 nM; at Lysine--tRNA ligase, over 2500 nM; in assay [4], over 1000 nM. The compound further registered an IC50 in assay [5] of over 1000 nM.

On to `O=C(Nc1ccsc1C(=O)NC1CCCCC1)c1ccc(F)cc1`, for which the IC50 in assay [1] was over 1000 nM; in assay [2], over 1000 nM; in assay [3] it was over 1000 nM; on Proline--tRNA ligase it was over 2500 nM; at Lysine--tRNA ligase, over 2500 nM; in assay [4], over 1000 nM. Moreover, the IC50 in assay [5] is over 1000 nM.

With `CCN(CC)c1cc(C)c2cc(NC(=O)c3cccc(OC)c3)ccc2n1`, the IC50 in assay [1] is over 1000 nM; in assay [2] it was over 1000 nM; in assay [3], over 1000 nM; on Proline--tRNA ligase, over 2500 nM; on Lysine--tRNA ligase it was over 2500 nM; in assay [4], over 1000 nM. The IC50 in assay [5] was over 1000 nM.

Consider `CCOc1ccc(-c2nc(NC(=O)c3cccc(S(C)(=O)=O)c3)sc2C)cc1`, for which the IC50 was over 1000 nM in assay [1]; over 1000 nM in assay [2]; over 1000 nM in assay [3]; over 2500 nM at Proline--tRNA ligase; over 2500 nM on Lysine--tRNA ligase; over 1000 nM in assay [4]. For the same compound, the IC50 in assay [5] is over 1000 nM.

In the case of `CCCc1c(C)nc2ccccc2c1O`, the IC50 in assay [1] is over 1000 nM; in assay [2], over 1000 nM; in assay [3], over 1000 nM; at Proline--tRNA ligase, over 2500 nM; at Lysine--tRNA ligase, over 2500 nM; in assay [4], over 1000 nM. In assay [5], this compound had an IC50 of over 1000 nM.

With `CN1c2ccccc2N(C)C1c1ccc2c(c1)OCO2`, the IC50 in assay [1] is over 1000 nM; in assay [2], over 1000 nM; in assay [3], over 1000 nM; on Proline--tRNA ligase, over 2500 nM; on Lysine--tRNA ligase, over 2500 nM; in assay [4], over 1000 nM. In assay [5], this compound had an IC50 of over 1000 nM.

`C=C(C)CCC(C)N1CCC(N2CCC(C(=O)NCCc3ccccc3)CC2)CC1` (stereo not given): the IC50 was over 1000 nM in assay [1]; over 1000 nM in assay [2]; over 1000 nM in assay [3]; over 2500 nM at Proline--tRNA ligase; over 2500 nM on Lysine--tRNA ligase; over 1000 nM in assay [4]. For the same compound, in assay [5], the IC50 is over 1000 nM.
